What was measured:
Test in all cases: relative viability (nuclei count vs DMSO), 5 days (fraction); higher = more cells survive
[1] = test system: NCI-H1792
Outline: (§1)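 Each reported value is a median over duplicate plates. It expresses relative viability: treated-well nuclei count divided by vehicle-well nuclei count. Lung cancer cell lines in 1536-well plates were dosed by pin tool a day after seeding, alone with one drug or with a fixed anchor-drug dose plus five library-drug doses (not always all listed) in √10 steps, and nuclei were counted after 5 days.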

[2] = test system: SK-MES-1
Outline: as §1

[3] = test system: NCI-H2342
Outline: as §1

[4] = test system: NCI-H1395
Outline: as §1

[5] = test system: NCI-H23
Outline: as §1

[6] = test system: COR-L23
Outline: as §1

[7] = test system: NCI-H2009
Outline: as §1

[8] = test system: LC-2-ad
Outline: as §1

[9] = test system: NCI-H358
Outline: as §1

[10] = test system: NCI-H2023
Outline: as §1

[11] = test system: NCI-H1755
Outline: as §1

[12] = test system: HCC-366
Outline: as §1

[13] = test system: EMC-BAC-2
Outline: as §1

[14] = test system: NCI-H2347
Outline: as §1

[15] = test system: NCI-H650
Outline: as §1

[16] = test system: NCI-H1437
Outline: as §1

[17] = test system: COR-L 105
Outline: as §1

[18] = test system: NCI-H1915
Outline: as §1

[19] = test system: PC-14
Outline: as §1

[20] = test system: HCC-15
Outline: as §1

[21] = test system: NCI-H1793
Outline: as §1

[22] = test system: 201T
Outline: as §1

CCNC(=O)c1noc(-c2cc(C(C)C)c(O)cc2O)c1-c1ccc(CN2CCOCC2)cc1 [Luminespib] + Cc1nc(Nc2ncc(C(=O)Nc3c(C)cccc3Cl)s2)cc(N2CCN(CCO)CC2)n1 [Dasatinib] (partner 0.075 µM)
relative viability ([1]; first compound 0.002 µM): 0.737 | relative viability ([1]; first compound 0.006325 µM): 0.619 | relative viability ([1]; first compound 0.02 µM): 0.722 | relative viability ([1]; first compound 0.06325 µM): 0.361 | relative viability ([1]; first compound 0.2 µM): 0.242 | relative viability ([2]; first compound 0.002 µM): 0.333 | relative viability ([2]; first compound 0.006325 µM): 0.376 | relative viability ([2]; first compound 0.02 µM): 0.217 | relative viability ([2]; first compound 0.06325 µM): 0.0911 | relative viability ([2]; first compound 0.2 µM): 0.0956 | relative viability ([3]; first compound 0.002 µM): 0.351 | relative viability ([3]; first compound 0.006325 µM): 0.33 | relative viability ([3]; first compound 0.02 µM): 0.287 | relative viability ([3]; first compound 0.06325 µM): 0.259 | relative viability ([3]; first compound 0.2 µM): 0.311 | relative viability ([4]; first compound 0.002 µM): 0.418 | relative viability ([4]; first compound 0.006325 µM): 0.386 | relative viability ([4]; first compound 0.02 µM): 0.366 | relative viability ([4]; first compound 0.06325 µM): 0.33 | relative viability ([4]; first compound 0.2 µM): 0.309 | relative viability ([5]; first compound 0.002 µM): 0.839 | relative viability ([5]; first compound 0.006325 µM): 0.765 | relative viability ([5]; first compound 0.02 µM): 0.517 | relative viability ([5]; first compound 0.06325 µM): 0.118 | relative viability ([5]; first compound 0.2 µM): 0.13 | relative viability ([6]; first compound 0.002 µM): 0.6 | relative viability ([6]; first compound 0.006325 µM): 0.363 | relative viability ([6]; first compound 0.02 µM): 0.433 | relative viability ([6]; first compound 0.06325 µM): 0.0438 | relative viability ([6]; first compound 0.2 µM): 0.0462 | relative viability ([7]; first compound 0.002 µM): 0.342 | relative viability ([7]; first compound 0.006325 µM): 0.251 | relative viability ([7]; first compound 0.02 µM): 0.222 | relative viability ([7]; first compound 0.06325 µM): 0.0645 | relative viability ([7]; first compound 0.2 µM): 0.0808 | relative viability ([8]; first compound 0.002 µM): 0.583 | relative viability ([8]; first compound 0.006325 µM): 0.567 | relative viability ([8]; first compound 0.02 µM): 0.447 | relative viability ([8]; first compound 0.06325 µM): 0.142 | relative viability ([8]; first compound 0.2 µM): 0.16 | relative viability ([9]; first compound 0.002 µM): 0.149 | relative viability ([9]; first compound 0.006325 µM): 0.164 | relative viability ([9]; first compound 0.02 µM): 0.0956 | relative viability ([9]; first compound 0.06325 µM): 0.0558 | relative viability ([9]; first compound 0.2 µM): 0.0633 | relative viability ([10]; first compound 0.002 µM): 0.589 | relative viability ([10]; first compound 0.006325 µM): 0.525 | relative viability ([10]; first compound 0.02 µM): 0.198 | relative viability ([10]; first compound 0.06325 µM): 0.0548 | relative viability ([10]; first compound 0.2 µM): 0.0529 | relative viability ([11]; first compound 0.002 µM): 0.394 | relative viability ([11]; first compound 0.006325 µM): 0.472 | relative viability ([11]; first compound 0.02 µM): 0.455 | relative viability ([11]; first compound 0.06325 µM): 0.258 | relative viability ([11]; first compound 0.2 µM): 0.119 | relative viability ([12]; first compound 0.002 µM): 0.615 | relative viability ([12]; first compound 0.006325 µM): 0.576 | relative viability ([12]; first compound 0.02 µM): 0.652 | relative viability ([12]; first compound 0.06325 µM): 0.0301 | relative viability ([12]; first compound 0.2 µM): 0.0393 | relative viability ([13]; first compound 0.002 µM): 0.355 | relative viability ([13]; first compound 0.006325 µM): 0.351 | relative viability ([13]; first compound 0.02 µM): 0.312 | relative viability ([13]; first compound 0.06325 µM): 0.395 | relative viability ([13]; first compound 0.2 µM): 0.172 | relative viability ([14]; first compound 0.002 µM): 0.299 | relative viability ([14]; first compound 0.006325 µM): 0.245 | relative viability ([14]; first compound 0.02 µM): 0.291 | relative viability ([14]; first compound 0.06325 µM): 0.256 | relative viability ([14]; first compound 0.2 µM): 0.198 | relative viability ([15]; first compound 0.002 µM): 0.468 | relative viability ([15]; first compound 0.006325 µM): 0.417 | relative viability ([15]; first compound 0.02 µM): 0.359 | relative viability ([15]; first compound 0.06325 µM): 0.112 | relative viability ([15]; first compound 0.2 µM): 0.115 | relative viability ([16]; first compound 0.002 µM): 0.421 | relative viability ([16]; first compound 0.006325 µM): 0.316 | relative viability ([16]; first compound 0.02 µM): 0.255 | relative viability ([16]; first compound 0.06325 µM): 0.252 | relative viability ([16]; first compound 0.2 µM): 0.126 | relative viability ([17]; first compound 0.002 µM): 0.344 | relative viability ([17]; first compound 0.006325 µM): 0.322 | relative viability ([17]; first compound 0.02 µM): 0.248 | relative viability ([17]; first compound 0.06325 µM): 0.157 | relative viability ([17]; first compound 0.2 µM): 0.145 | relative viability ([18]; first compound 0.002 µM): 0.311 | relative viability ([18]; first compound 0.006325 µM): 0.299 | relative viability ([18]; first compound 0.02 µM): 0.234 | relative viability ([18]; first compound 0.06325 µM): 0.236 | relative viability ([18]; first compound 0.2 µM): 0.0739 | relative viability ([19]; first compound 0.002 µM): 0.253 | relative viability ([19]; first compound 0.006325 µM): 0.272 | relative viability ([19]; first compound 0.02 µM): 0.0443 | relative viability ([19]; first compound 0.06325 µM): 0.0382 | relative viability ([19]; first compound 0.2 µM): 0.0374 | relative viability ([20]; first compound 0.002 µM): 0.708 | relative viability ([20]; first compound 0.006325 µM): 0.603 | relative viability ([20]; first compound 0.02 µM): 0.61 | relative viability ([20]; first compound 0.06325 µM): 0.084 | relative viability ([20]; first compound 0.2 µM): 0.0846 | relative viability ([21]; first compound 0.002 µM): 0.39 | relative viability ([21]; first compound 0.006325 µM): 0.359 | relative viability ([21]; first compound 0.02 µM): 0.117 | relative viability ([21]; first compound 0.06325 µM): 0.116 | relative viability ([21]; first compound 0.2 µM): 0.14 | relative viability ([22]; first compound 0.002 µM): 0.524 | relative viability ([22]; first compound 0.006325 µM): 0.614 | relative viability ([22]; first compound 0.02 µM): 0.506 | relative viability ([22]; first compound 0.06325 µM): 0.569 | relative viability ([22]; first compound 0.2 µM): 0.237
